Laboratory results taken from patent US20080119515A1, “Heterocyclic Kinase Inhibitors: Methods of Use and Synthesis” (priority 2003, published 2008).

Target: T1, ZAP-70 (Homo sapiens, UniProt P43403)
T1 sequence (P43403 1-619): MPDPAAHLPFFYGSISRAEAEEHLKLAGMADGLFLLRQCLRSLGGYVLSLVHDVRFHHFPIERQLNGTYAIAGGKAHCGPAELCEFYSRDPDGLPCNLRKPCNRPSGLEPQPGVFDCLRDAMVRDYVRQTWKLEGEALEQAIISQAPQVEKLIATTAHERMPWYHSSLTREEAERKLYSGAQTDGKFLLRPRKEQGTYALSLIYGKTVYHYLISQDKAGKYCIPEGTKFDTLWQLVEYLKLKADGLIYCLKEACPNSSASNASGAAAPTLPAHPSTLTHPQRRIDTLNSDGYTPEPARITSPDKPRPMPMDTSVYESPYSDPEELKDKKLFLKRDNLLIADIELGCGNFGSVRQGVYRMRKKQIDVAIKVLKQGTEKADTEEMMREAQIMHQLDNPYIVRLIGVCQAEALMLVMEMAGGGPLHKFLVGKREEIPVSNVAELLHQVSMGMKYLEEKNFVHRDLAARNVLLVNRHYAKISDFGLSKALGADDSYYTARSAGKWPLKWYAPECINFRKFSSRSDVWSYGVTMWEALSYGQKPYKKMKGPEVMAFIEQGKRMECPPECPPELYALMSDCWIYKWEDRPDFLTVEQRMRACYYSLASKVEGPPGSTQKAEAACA
Experiment: DELFIA assay (ZAP-70 kinase, phosphorylation of biotinylated poly(glu,tyr))
Type: biochemical
Conditions: ZAP-70 DELFIA, class symbols; read-out: Activity (IC50 in vitro)
Method: Before initiation of kinase reactions, compounds were pre-incubated with ZAP-70. Pre-incubation reactions contained 62.5 mM Mops pH 7.0, 12.5 mM MgCl2, 12.5% glycerol, 3.1 nM ZAP-70, 62.5 nM biotinylated poly(glu,Tyr), 0.1 mg/ml BSA, 6.25% DMSO and […] compound in a total volume of […]. After a 10 minute room temperature incubation, 10 ml of 5 mM ATP was added to start the reaction. Reactions were incubated at room temperature for 30 minutes then terminated by addition of 5 ml 500 mM EDTA. The amount of phosphate transferred to biotinylated poly(glu,tyr) was measured using the Dissociation Enhanced Lanthanide Fluorescence Immuno-assay (DELFIA) from Perkin Elmer according to manufacturers protocol. Briefly, biotinylated […] was captured on streptavidin coated plates, washed twice, then incubated with Europium labeled-anti-phosphotyrosine antibody. Free antibody was removed with six washes, Europium was dissociated from the antibody, and Europium fluorescence was measured at using an excitation wavelength of 340 nm and an emission wavelength of 615 nm.

IC50 | SMILES
1 to 10 µM | O=C(c1cc(/C=C/c2ccccc2)nc(/C=C/c2ccccc2)c1)N1CCC[C@H]1CN1CCCC1 [Compound 116]
< 1 µM | CC(Nc1cc(C(=O)N2CCC[C@H]2CN2CCCC2)c2cc(-c3ccc4c(c3)OCO4)ccc2n1)c1ccc(F)cc1 (stereo partly drawn) [Compound 117]
1 to 10 µM | O=C(c1cc(NCc2ccc(C(F)(F)F)cc2)nc2cc(-c3ccc4c(c3)OCO4)ccc12)N1CCC[C@H]1CN1CCCC1 [Compound 118]
> 10 µM | N#Cc1cccc(-c2ccc3c(C(=O)N4CCC[C@H]4CN4CCCC4)cc(NCc4ccc(C(F)(F)F)cc4)nc3c2)c1 [Compound 119]
1 to 10 µM | N#Cc1ccc(-c2ccc3c(C(=O)N4CCC[C@H]4CN4CCCC4)cc(NCc4ccc(C(F)(F)F)cc4)nc3c2)cc1 [Compound 120]
1 to 10 µM | O=C(c1cc(NCc2ccc(C(F)(F)F)cc2)nc2cc(-c3cc(F)cc(F)c3)ccc12)N1CCC[C@H]1CN1CCCC1 [Compound 121]
1 to 10 µM | O=C(c1cc(NCc2ccc(C(F)(F)F)cc2)nc2cc(-c3ccc(Cl)c(Cl)c3)ccc12)N1CCC[C@H]1CN1CCCC1 [Compound 122]
1 to 10 µM | CS(=O)(=O)c1ccc(-c2ccc3c(C(=O)N4CCC[C@H]4CN4CCCC4)cc(NCc4ccc(C(F)(F)F)cc4)nc3c2)cc1 [Compound 123]
1 to 10 µM | Cc1c(NCc2ccc(C(F)(F)F)cc2)nc2ccc(-c3ccc4c(c3)OCO4)cc2c1C(=O)N1CCC[C@H]1CN1CCCC1 [Compound 124]
< 1 µM | O=C(c1cc(NCc2ccc(C(F)(F)F)cc2)nc2ccc(-c3ccc4c(c3)OC(F)(F)C(F)(F)O4)cc12)N1CCC[C@H]1CN1CCCC1 [Compound 125]
< 1 µM | O=C(c1cc(NCc2ccc(C(F)(F)F)cc2)nc2ccc(-c3ccc4c(c3)OCCO4)cc12)N1CCC[C@H]1CN1CCCC1 [Compound 126]
< 1 µM | O=C(c1cc(NCc2ccc(C(F)(F)F)cc2)nc2ccc(-c3ccc4cc[nH]c4c3)cc12)N1CCC[C@H]1CN1CCCC1 [Compound 127]
> 10 µM | O=C(c1cc2cc(-c3ccc4c(c3)OCO4)ccc2nc1NCc1ccc(C(F)(F)F)cc1)N1CCCC1CN1CCCC1 (stereo not drawn) [Compound 128]
1 to 10 µM | CN(Cc1ccccc1)c1cc(C(=O)N2CCC[C@H]2CN2CCCC2)c2cc(Oc3ccccc3)ccc2n1 [Compound 129]
1 to 10 µM | O=C(c1cc(/C=C/c2ccccc2)nc2ccc(-c3ccc4c(c3)OCO4)cc12)N1CCC[C@H]1CN1CCCC1 [Compound 130]
1 to 10 µM | O=C(c1cc(/C=C/c2ccc(F)cc2)nc2ccc(-c3ccc4c(c3)OCO4)cc12)N1CCC[C@H]1CN1CCCC1 [Compound 131]
1 to 10 µM | O=C(c1cc(/C=C/c2ccc(Cl)cc2)nc2ccc(-c3ccc4c(c3)OCO4)cc12)N1CCC[C@H]1CN1CCCC1 [Compound 132]
1 to 10 µM | O=C(c1cc(/C=C/c2ccc(C(F)(F)F)cc2)nc2ccc(-c3ccc4c(c3)OCO4)cc12)N1CCC[C@H]1CN1CCCC1 [Compound 133]
1 to 10 µM | O=C(c1cc(CCc2ccccc2)nc2ccc(-c3ccc4c(c3)OCO4)cc12)N1CCC[C@H]1CN1CCCC1 [Compound 134]
1 to 10 µM | O=C(c1cc(CCc2ccc(F)cc2)nc2ccc(-c3ccc4c(c3)OCO4)cc12)N1CCC[C@H]1CN1CCCC1 [Compound 135]
1 to 10 µM | O=C(c1cc(CCc2ccc(Cl)cc2)nc2ccc(-c3ccc4c(c3)OCO4)cc12)N1CCC[C@H]1CN1CCCC1 [Compound 136]
1 to 10 µM | O=C(c1cc(CCc2ccc(C(F)(F)F)cc2)nc2ccc(-c3ccc4c(c3)OCO4)cc12)N1CCC[C@H]1CN1CCCC1 [Compound 137]
> 10 µM | NC(=O)c1cc(C(=O)N2CCC[C@H]2CN2CCCC2)c2cc(-c3ccc4c(c3)OCO4)ccc2n1 [Compound 138]
1 to 10 µM | O=C(NCc1ccc(C(F)(F)F)cc1)c1cc(C(=O)N2CCC[C@H]2CN2CCCC2)c2cc(-c3ccc4c(c3)OCO4)ccc2n1 [Compound 139]
< 1 µM | O=C(NCc1ccc(Cl)cc1)c1cc(C(=O)N2CCC[C@H]2CN2CCCC2)c2cc(-c3ccc4c(c3)OCO4)ccc2n1 [Compound 140]
1 to 10 µM | O=C(NCCc1ccccc1)c1cc(C(=O)N2CCC[C@H]2CN2CCCC2)c2cc(-c3ccc4c(c3)OCO4)ccc2n1 [Compound 141]
1 to 10 µM | CC(CNC(=O)c1cc(C(=O)N2CCC[C@H]2CN2CCCC2)c2cc(-c3ccc4c(c3)OCO4)ccc2n1)c1ccccc1 (stereo partly drawn) [Compound 142]

IC50 | SMILES
1 to 10 µM | CCN(Cc1ccc(C)cc1)C(=O)c1cc(C(=O)N2CCC[C@H]2CN2CCCC2)c2cc(-c3ccc4c(c3)OCO4)ccc2n1 [Compound 143]
1 to 10 µM | O=C(Nc1ccccc1)c1cc(C(=O)N2CCC[C@H]2CN2CCCC2)c2cc(-c3ccc4c(c3)OCO4)ccc2n1 [Compound 144]
1 to 10 µM | O=C(c1cc(NCc2ccc(C(F)(F)F)cc2)nc2ccc(-c3ccc4c(c3)OCO4)cc12)N1CC2CC2[C@H]1CN1CCCC1 (stereo partly drawn) [Compound 145]
1 to 10 µM | O=C(c1cc(NCc2ccc(Cl)cc2)nc2ccc(-c3ccc4c(c3)OCO4)cc12)N1CC2CC2[C@H]1CN1CCCC1 (stereo partly drawn) [Compound 146]
1 to 10 µM | C[C@H]1CCN(C(=O)c2cc(NCc3ccc(C(F)(F)F)cc3)nc3ccc(-c4ccc5c(c4)OCO5)cc23)[C@@H]1CN1CCCC1 [Compound 147]
1 to 10 µM | C[C@H]1CCN(C(=O)c2cc(NCc3ccc(Cl)cc3)nc3ccc(-c4ccc5c(c4)OCO5)cc23)[C@@H]1CN1CCCC1 [Compound 148]
1 to 10 µM | O=C(c1cc(NCc2ccc(C(F)(F)F)cc2)nc2ccc(-c3ccc4c(c3)OCO4)cc12)N1CC[C@H]1CN1CCCC1 [Compound 149]
> 10 µM | CN(Cc1ccccc1)c1cc(C(=O)N2CCC[C@H]2CN2CCCC2)c2cc(-c3ccc(C#N)cc3)ccc2n1 [Compound 150]
> 10 µM | COc1ccccc1CNc1cc(C(=O)N2CCC[C@H]2CN2CCCC2)c2cc(-c3ccc(C#N)cc3)ccc2n1 [Compound 151]
> 10 µM | COc1ccc(CNc2cc(C(=O)N3CCC[C@H]3CN3CCCC3)c3cc(-c4ccc(C#N)cc4)ccc3n2)cc1 [Compound 152]
> 10 µM | N#Cc1ccc(-c2ccc3nc(N4CCc5ccccc5C4)cc(C(=O)N4CCC[C@H]4CN4CCCC4)c3c2)cc1 [Compound 153]
> 10 µM | N#Cc1ccc(-c2ccc3nc(NCc4ccccc4)cc(C(=O)N4CCC[C@H]4CN4CCCC4)c3c2)cc1 [Compound 154]
> 10 µM | N#Cc1ccc(-c2ccc3nc(NC4Cc5ccccc5C4)cc(C(=O)N4CCC[C@H]4CN4CCCC4)c3c2)cc1 [Compound 155]
> 10 µM | N#Cc1ccc(-c2ccc3nc(NCCc4ccccc4Cl)cc(C(=O)N4CCC[C@H]4CN4CCCC4)c3c2)cc1 [Compound 156]
> 10 µM | N#Cc1ccc(-c2ccc3nc(NCc4cccc(C(F)(F)F)c4)cc(C(=O)N4CCC[C@H]4CN4CCCC4)c3c2)cc1 [Compound 157]
> 10 µM | N#Cc1ccc(-c2ccc3nc(NCc4ccccc4F)cc(C(=O)N4CCC[C@H]4CN4CCCC4)c3c2)cc1 [Compound 158]
> 10 µM | N#Cc1ccc(-c2ccc3nc(NCc4ccc(F)cc4)cc(C(=O)N4CCC[C@H]4CN4CCCC4)c3c2)cc1 [Compound 159]
> 10 µM | COc1cccc(CNc2cc(C(=O)N3CCC[C@H]3CN3CCCC3)c3cc(-c4ccc(C#N)cc4)ccc3n2)c1 [Compound 160]
> 10 µM | N#Cc1ccc(-c2ccc3nc(NCc4cccc(F)c4)cc(C(=O)N4CCC[C@H]4CN4CCCC4)c3c2)cc1 [Compound 161]
> 10 µM | N#Cc1ccc(-c2ccc3nc(NCc4ccc(F)c(F)c4)cc(C(=O)N4CCC[C@H]4CN4CCCC4)c3c2)cc1 [Compound 162]
> 10 µM | N#Cc1ccc(-c2ccc3nc(NCc4cc(F)ccc4F)cc(C(=O)N4CCC[C@H]4CN4CCCC4)c3c2)cc1 [Compound 163]
> 10 µM | N#Cc1ccc(-c2ccc3nc(NCc4ccccc4C(F)(F)F)cc(C(=O)N4CCC[C@H]4CN4CCCC4)c3c2)cc1 [Compound 164]
> 10 µM | N#Cc1ccc(-c2ccc3nc(NCc4cccc(Br)c4)cc(C(=O)N4CCC[C@H]4CN4CCCC4)c3c2)cc1 [Compound 165]
> 10 µM | N#Cc1ccc(-c2ccc3nc(NCc4ccc(Cl)cc4Cl)cc(C(=O)N4CCC[C@H]4CN4CCCC4)c3c2)cc1 [Compound 166]
> 10 µM | N#Cc1ccc(-c2ccc3nc(NCc4cccc(Cl)c4)cc(C(=O)N4CCC[C@H]4CN4CCCC4)c3c2)cc1 [Compound 167]
> 10 µM | N#Cc1ccc(-c2ccc3nc(NCc4ccc(Cl)cc4)cc(C(=O)N4CCC[C@H]4CN4CCCC4)c3c2)cc1 [Compound 168]
> 10 µM | N#Cc1ccc(-c2ccc3nc(NCc4ccccc4Cl)cc(C(=O)N4CCC[C@H]4CN4CCCC4)c3c2)cc1 [Compound 169]
